Reference: patent US8114408B2 (priority 2007, dated 2012)
“And” between values parts separate entries of the source, which are not always exact repeats. Identical values can stand only once.

Tested on: antibodies to pathogenic Newcastle disease virus
Type: binding, chicken

**Q.** Which “number of positive chickens/number of tested chickens” value does the source give for 3 (RRQRRF) [compound 3] here?
**A.** The value was 1/5(0.81) and 0/5(0.70) and 4/4(2.45).
